Measurements taken from patent US7527935B2, “G-protein coupled receptor having eicosanoid as ligand and gene thereof” (Mitsubishi Tanabe Pharma Corporation, priority 2002, dated 2009).

Assays:
[1] = molecular target: T1, fusion protein of TG1019 protein and Giα1 (351Cys→Ile) (Homo sapiens, UniProt P63096+Q8TDS5, C351I/D111G/K206E/T295A); assay: [35S]GTPγS binding to membrane fraction containing TG1019-Giα1 (351Cys→Ile) fusion protein (ligand identification); format: biochemical; settings: membrane fraction with TG1019-Giα1 (351Cys→Ile) fusion protein
T1 construct: made in house; host or cells: Sf9 insect cells (baculovirus, pVL1392), membrane fraction
T1 sequence (Q8TDS5+P63096 fused Q8TDS5:D111G/Q8TDS5:K206E/Q8TDS5:T295A/P63096:C351I): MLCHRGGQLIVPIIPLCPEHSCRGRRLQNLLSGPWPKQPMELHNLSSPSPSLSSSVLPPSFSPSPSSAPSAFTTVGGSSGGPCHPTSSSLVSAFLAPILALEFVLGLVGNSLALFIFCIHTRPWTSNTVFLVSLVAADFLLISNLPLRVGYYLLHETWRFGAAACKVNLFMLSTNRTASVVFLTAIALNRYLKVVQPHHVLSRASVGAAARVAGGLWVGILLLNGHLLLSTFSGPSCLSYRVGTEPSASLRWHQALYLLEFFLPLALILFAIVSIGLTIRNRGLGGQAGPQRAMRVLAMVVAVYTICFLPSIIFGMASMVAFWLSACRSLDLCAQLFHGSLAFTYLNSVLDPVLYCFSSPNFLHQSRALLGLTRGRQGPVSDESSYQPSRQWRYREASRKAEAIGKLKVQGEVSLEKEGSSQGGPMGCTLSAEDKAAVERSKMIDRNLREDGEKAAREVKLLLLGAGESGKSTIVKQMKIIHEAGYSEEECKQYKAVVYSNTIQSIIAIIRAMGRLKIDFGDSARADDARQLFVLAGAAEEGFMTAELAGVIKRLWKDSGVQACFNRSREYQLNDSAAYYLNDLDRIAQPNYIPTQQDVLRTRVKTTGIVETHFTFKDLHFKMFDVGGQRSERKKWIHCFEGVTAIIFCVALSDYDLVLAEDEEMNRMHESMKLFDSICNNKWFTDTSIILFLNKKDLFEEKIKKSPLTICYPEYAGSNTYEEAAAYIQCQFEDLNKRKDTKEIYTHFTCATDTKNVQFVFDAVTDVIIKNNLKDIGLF
Text: (§1) As stated in Example 1, it is concluded that TG1019 protein is a G-protein coupled receptor. Therefore, using a membrane fraction containing fused protein of TG1019 and G-protein, a ligand is identified as follows, according to a method for detecting a ligand-dependent binding with GTPγS (guanosine 5′-O-(3-thiotriphosphate)) [Wenzel-Seifert, et al., Mol. Pharmacom., Vol. 58, pp. 954-966, 2000; Bahia, et al., Biochemistry, Vol. 37, pp. 11555-11562, 1998].
Sf9 cells were inoculated onto a 10 cm Petri dish coated with collagen to about 70% confluence, and added thereto were Virus solution III (100 μl) obtained above and 12 ml of a culture medium, and the mixture was cultured at 27° C. for 4 days. The obtained cells were washed with a cooled PBS (Phosphate buffered saline, pH 7.4), and suspended in 3.6 ml of a cooled solution buffer [20 mM Tris-HCl, pH 7.5, 1 mM EDTA, 0.2 mM phenylmethylsulfonyl fluoride, 10 μg/ml pepstatin, 10 μg/ml leupeptin, and 2 μg/ml aprotinin], and the cells were homogenized by means of a Teflon homogenizer. This cell homogenate was centrifuged (600×g, 10 minutes), and the resultant supernatant was further centrifuged (50,000×g, 20 minutes). The obtained sediments were suspended in 450 μl of a cooled reaction buffer [20 mM Tris-HCl, pH 7.5, 50 mM sodium chloride, 10 mM magnesium chloride] by means of a Teflon homogenizer, to prepare a membrane fraction containing a fusion protein.
The membrane fraction (450 μl) obtained above (2) was suspended in a reaction buffer (7.54 ml), and added thereto was GDP (10 mM, 10 μl). To 160 μl of this solution was added 20 μl of a test compound. After incubating the mixture at 30° C. for 10 minutes, 20 μl of [^35S] GTPγS (5 nM, 5 nCi/μl: available from Amersham Pharmacia Biotech) was added to start reaction. After incubating the mixture at 30° C. for one hour, the reaction was terminated by filtration through a glass filter (UniFilter-96GF/B, available from Packard). The filter was washed with 200 μl of a cooled reaction buffer for 3 times, and an amount of the [^35S] GTPγS (a binding amount to the membrane fraction) on the filter was measured by liquid scintillation counting. From the thus measured [^35S] GTPγS binding amount was subtracted a nonspecific binding amount (a binding amount measured in the presence of 10 μM GTPγS), to obtain a specific binding amount of [^35S ] GTPγS.

[2] = molecular target: T2, fusion protein of TG1019 protein and Giα1 (Homo sapiens, UniProt P63096+Q8TDS5, C351I/D111G/K206E/T295A); assay: Antagonist assay: inhibition of 5-oxo-ETE-stimulated G-protein activation ([35S]GTPγS binding) of TG1019-Giα1 fusion membrane fraction; format: biochemical; settings: inhibition of G-protein activating effect of TG1019 by 5-oxo-ETE 0.1 μM
T2 construct: made in house; host or cells: Sf9 insect cells (baculovirus, pVL1392), membrane fraction
T2 sequence (Q8TDS5+P63096 fused Q8TDS5:D111G/Q8TDS5:K206E/Q8TDS5:T295A/P63096:C351I): as above
Protocol: In the presence of 5-oxo-ETE (a ligand which acts as an agonist) and a test compound, a G-protein activating effect of TG1019 protein based on 5-oxo-ETE stimulation was detected, and an antagonistic effect of the test compound was examined.
Detection of the G-protein activation was carried out in a similar manner as in Example 3 (3) mentioned above, using a membrane fraction containing a fusion protein of TG1019 protein and Giα1 and a labeled GTPγS.
Specifically, a membrane fraction (450 μl) containing a fusion protein of TG1019 protein and Giα1 was suspended in a reaction solution (7.54 ml), and added thereto was 10 μl of GDP (10 mM). To 160 μl of this solution were added 5-oxo-ETE (the final concentration of 0.1 μM) and a test compound at various concentrations (0M, 10^−7M -10^−5M), and the mixture was incubated at 30° C. for 10 minutes (a total amount of 5-oxo-ETE and the test compound: 20 μl).
Added thereto was 20 μl of [^35S] GTPγS to start a reaction. After incubation at 30° C. for one hour, the reaction was terminated by filtration through a glass filter.
An amount of the [^35S] GTPγS (a binding amount to the membrane fraction) on the filter was measured by liquid scintillation counting. From the thus measured [^35S] GTPγS amount was subtracted a nonspecific binding amount (a binding amount measured in the presence of 10 μM GTPγS), to obtain a specific binding amount.

[3] = molecular target: T3, fusion protein of TG1019 protein and Gqα (Homo sapiens, UniProt Q8TDS5, D111G/K206E/T295A); assay: [35S]GTPγS binding to membrane fraction containing TG1019-Gqα fusion protein; format: biochemical; settings: membrane fraction with TG1019-Gqα fusion protein; increase small compared to Giα
T3 construct: made in house; host or cells: Sf9 insect cells (baculovirus, pVL1392), membrane fraction
T3 sequence (Q8TDS5 with tags, fused parts or gaps D111G/K206E/T295A): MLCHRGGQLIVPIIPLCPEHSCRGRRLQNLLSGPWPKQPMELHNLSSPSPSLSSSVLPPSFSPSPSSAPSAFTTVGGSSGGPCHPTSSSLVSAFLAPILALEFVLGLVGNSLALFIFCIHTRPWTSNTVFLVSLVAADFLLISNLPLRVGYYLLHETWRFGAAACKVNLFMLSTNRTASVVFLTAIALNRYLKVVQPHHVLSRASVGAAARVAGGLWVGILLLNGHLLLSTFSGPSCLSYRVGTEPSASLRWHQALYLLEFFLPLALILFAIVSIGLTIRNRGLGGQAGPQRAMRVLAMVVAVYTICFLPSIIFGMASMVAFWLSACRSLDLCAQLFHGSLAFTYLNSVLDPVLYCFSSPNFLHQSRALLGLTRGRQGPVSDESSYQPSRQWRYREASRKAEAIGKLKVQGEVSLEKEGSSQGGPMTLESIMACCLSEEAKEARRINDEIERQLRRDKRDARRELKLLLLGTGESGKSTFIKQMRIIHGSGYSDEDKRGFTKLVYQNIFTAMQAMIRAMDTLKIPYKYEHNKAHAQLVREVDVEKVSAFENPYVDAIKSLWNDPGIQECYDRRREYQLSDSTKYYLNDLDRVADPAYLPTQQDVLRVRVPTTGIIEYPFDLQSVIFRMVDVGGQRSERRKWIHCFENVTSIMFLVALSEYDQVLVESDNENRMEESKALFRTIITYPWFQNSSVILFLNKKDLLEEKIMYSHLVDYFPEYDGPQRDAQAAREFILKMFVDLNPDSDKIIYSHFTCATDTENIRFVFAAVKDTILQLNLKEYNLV
Text: as §1
Sf9 cells were inoculated onto a 10 cm Petri dish coated with collagen to about 70% confluence, and added thereto were Virus solution III (100 μl) obtained above and 12 ml of a culture medium, and the mixture was cultured at 27° C. for 4 days. […]
The membrane fraction (450 μl) obtained above (2) was suspended in a reaction buffer (7.54 ml), and added thereto was GDP (10 mM, 10 μl). […] GTPγS (a binding amount to the membrane fraction) on the filter was measured by liquid scintillation counting. From the thus measured [^35S] GTPγS binding amount was subtracted a nonspecific binding amount (a binding amount measured in the presence of 10 μM GTPγS), to obtain a specific binding amount of [^35S ] […]

[4] = test system: TG1019 (5-oxo-ETE receptor); assay: Intracellular calcium level in CHO cells stably expressing TG1019; format: cell-based, human; settings: FuraII 340/380 nm ratio
Protocol: (1) Preparation of cells stably expressing TG1019 Cells stably expressing TG1019 (the receptor protein of the present invention) and cells not expressing TG1019 were prepared by introducing to CHO cells the TG1019 protein expression vector prepared in Example 5 and the control vector, as described below.
The cells stably expressing TG1019 prepared in the above section (1) was incubated in DMEM/F12 medium supplemented with 10% fetal bovine serum at 37° C. in a CO2 incubator. To the cells which were 80 to 90% confluent, was added a cell dissociation buffer (Cell Dissociation Buffer Enzyme-free PBS-based, available from Invitrogen), and cells were dissociated by incubating at 37° C. for 5 minutes. […]
The cells after loading were centrifuged once with an assay buffer, to remove supernatant, and then, they were suspended in an assay buffer to have a concentration of 3.7 to 6.3×10^6 cells/ml. This cell suspension was portioned into a 96 well plate by 80 μl/well, and the plate was set in a fluorescence measuring device (FDSS6000, [Hamamatsu Photonics]), and the reaction was started by adding a solution containing 5-oxo-ETE or 5-HETE in a 5 fold concentration dissolved in an assay buffer, by 20 μl/well. The measurement was done by measuring fluorescence intensity at 510 nm, with excitation wavelength of 340 nm and 380 nm.

[5] = test system: PC3 human prostate cancer cells; assay: Apoptosis analysis (annexin V / PI flow cytometry) in PC3 cells; format: cell-based; settings: 20 μl of 1 mM DHA in 2 ml, 2 hours
Protocol: PC3 human prostate cancer cells, which had been cultured in RPMI1640 culture medium supplemented with 10% fetal bovine serum were dissociated by trypsin-EDTA solution (GibcoBRL), and suspended in RPMI1640 culture medium supplemented with 0.5% fetal bovine serum. The cells were plated onto a 6 cm Petri dish to 2×10^5 cells/dish, and cultured at 37° C. for 18 hours in a CO2 incubator. The supernatant was removed and 1980 μl of the same medium was added, and 20 μl of 1 mM DHA was further added thereto, and the mixture was cultured at 37° C. for 2 hours in a CO2 incubator.
In addition, as a test in the presence of 5-oxo-ETE, 1960 μl of RPMI1640 culture medium supplemented with 0.5% fetal bovine serum was added, and 20 μl of a 100 μM 5-oxo-ETE solution and 20 μl of a 1 mM DHA solution were further added thereto, and the cells were cultured in a similar manner as described above.
The adhered cells were removed by a cell scraper, transferred to a 1.5 ml tube, and centrifuged at 800×g for 5 minutes at 4° C., to collect suspended and adhered cells. […] The cells were suspended in 100 μl of a FITC-Annexin solution, and after 15 minutes of reaction under light-shielded condition at room temperature, 300 μl of Binding buffer was added thereto, and the FITC-Annexin bound to the cells and propidium iodide (PI) uptake into the cells were measured, by means of flow cytometer [Becton Dickinson].

IC50 [2] | SMILES | specific binding amount of [35S]GTPγS [1] | further results
– | CCCCCCCCCCC/C=C\C/C=C\CCCC(=O)O [eicosa-5Z,8Z-dienoic acid] | increased in a concentration-dependent manner | –
– | CCCCCCCC/C=C\C/C=C\C/C=C\CCCC(=O)O [eicosa-5Z,8Z,11Z-trienoic acid] | increased in a concentration-dependent manner | –
6 ± 1.2 µM | CC/C=C\C/C=C\C/C=C\C/C=C\C/C=C\CCCC(=O)O [EPA, 5Z, 8Z, 11Z, 14Z, 17Z-eicosapentaenoic acid] | – | –
– | CCCCC/C=C\C/C=C\C/C=C\C=C\C(CCCC(=O)O)OO (centres unmarked) [5-HPETE, 5-hydroperoxyeicosa-6E,8Z,11Z,14Z-tetraenoic acid] | increased in a concentration-dependent manner | specific binding amount of [35S]GTPγS [3]: increased
– | CCCCCCCC/C=C\C/C=C\C=C\C(O)CCCC(=O)O (centres unmarked) [5-HETrE, 5-hydroxyeicosa-6E,8Z,11Z-trienoic acid] | increased in a concentration-dependent manner | –
– | CCCCC/C=C\C/C=C\C/C=C\C/C=C\CCCC(=O)O [arachidonic acid] | increased in a concentration-dependent manner | –
– | CCCCC/C=C\C/C=C\C/C=C\C=C\C(O)CCCC(=O)O (centres unmarked) [5-HETE, 5-hydroxyeicosa-6E,8Z,11Z,14Z-tetraenoic acid] | increased in a concentration-dependent manner | change in intracellular calcium level [4]: increase in intracellular calcium level
– | CCCCCCCCC#CCC#CCC#CCCCC(=O)O [ETI, 5,8,11-eicosatriynoic acid] | increased in a concentration-dependent manner | –
5.1 ± 0.6 µM | CC/C=C\C/C=C\C/C=C\CCCCCCCCCC(=O)O [Eicosa-11Z, 14Z, 17Z-trienoic acid] | – | –
1.6 ± 0.2 µM | CC/C=C\C/C=C\C/C=C\C/C=C\C/C=C\C/C=C\CCC(=O)O [DHA, 4Z, 7Z, 10Z, 13Z, 16Z, 19Z-docosahexaenoic acid] | – | induction of apoptosis (cells annexin positive, PI uptake negative) [5]: induces apoptosis of PC3 cells

SMILES | IC50 [2] | specific binding amount of [35S]GTPγS [1] | further results
CCCCC/C=C\C/C=C\C/C=C\CCCCCCC(=O)O [Dihomo-γ-linolenic accid] | 3.7 ± 0.7 µM | – | –
